Source: patent US9822414B2, “In vitro method for predicting in vivo genotoxicity of chemical compounds” (priority 2011, dated 2017)
“And” between values parts separate entries of the source, which are not always exact repeats. Equal values may be shown once. Read-outs that look alike come from different tables or passages of the source.

How the values were obtained:
rodents = details: cited from earlier work
[1] = tested on: conventional in vitro genotoxicity assays; details: cited from earlier work
SLC40A1 = test: Gene expression of SLC40A1 in HepG2 cells exposed to compound (microarray, log2 treatment:control ratio); assay type: cell-based, human
C10orf65/HOGA1 = test: Gene expression of C10orf65/HOGA1 in HepG2 cells exposed to compound (microarray, log2 treatment:control ratio); assay type: cell-based, human; details: for C10orf65/HOGA1: expression versus reference value, single measurement of three
Salmonella typhimurium = details: cited from earlier work
PNMA6A = test: Gene expression of PNMA6A in HepG2 cells exposed to compound (microarray, log2 treatment:control ratio); assay type: cell-based, human
[2] = HepG2 cells, expression versus reference value, single measurement of three
[3] = standard in vivo genotoxicity designation
[4] = HepG2 cells, 24 h exposure, Ames negative compounds, one line per replicate of triplicate experiments

Row | SMILES | In vivo GTX (rodents; in vivo) | Standard (rodents; in vivo) | In vitro GTX [1] | SLC40A1 (SLC40A1; [2]) | C10orf65/HOGA1 (C10orf65/HOGA1) | PNMA6A (PNMA6A; [2]) | further results
1 | CC(=O)Nc1ccc(O)cc1 [APAP] | + | GTX | + | − (below the reference value) | − (below the reference value) |  | Ames (Salmonella typhimurium; Ames results based on NTP data): −
2 | c1ccc2c(c1)cc1ccc3cccc4ccc2c1c34 [BaP] | + |  | + |  |  |  | 
3 | ClC(Cl)(Cl)Cl [CCI4] |  |  |  | − (below the reference value) |  |  | Standard (rodents; [3]): NGTX
4 | CN(C)N=O [DMN] | + |  | + |  |  |  | Standard (in vivo genotoxicity designation) (rodents; in vivo): GTX; Average result over three measurements (HepG2 cell): GTX; Prediction (class prediction results using the method of the invention) (HepG2 cell): GTX+; Ames (Salmonella typhimurium): +
5 | O=C(O)Cc1ccccc1Nc1c(Cl)cccc1Cl [Diclo] |  | NGTX |  | − (below the reference value) | − (below the reference value) |  | 
6 | ClC1C(Cl)C(Cl)C(Cl)C(Cl)C1Cl (stereo not shown) [HCH] |  | NGTX |  | + (above the reference value) | − (below the reference value) | − (below the reference value) | Log2 treatment: control ratio PNMA6A (PNMA6A; [4]): −0.604 and −0.2 and 0.012; At least ⅔ genes +? (HepG2 cell): NGTX; Average result over three measurements (HepG2 cell): NGTX; Prediction (class prediction results using the method of the invention) (HepG2 cell): NGTX; Log2 treatment: control ratio SLC40A1 (SLC40A1; [4]): 0.334 and 0.924 and 0.712; Log2 treatment: control ratio C10orf65/HOGA1 (C10orf65/HOGA1; 24 h exposure, Ames negative compounds, one line per replicate of triplicate experiments): −0.367 and −0.143 and −0.165
7 | CO[C@@]12[C@H](COC(N)=O)C3=C(C(=O)C(C)=C(N)C3=O)N1C[C@@H]1N[C@@H]12 [MMC] | + |  |  |  |  |  | 
8 | O=[N+]([O-])c1ccccc1 [NBZ] | − | NGTX | − | − (below the reference value) |  |  | 
9 | Oc1c(Cl)c(Cl)c(Cl)c(Cl)c1Cl [PCP] |  |  |  |  | − (below the reference value) | − (below the reference value) | Standard (rodents; [3]): NGTX
10 | Oc1ccccc1 [Ph, Phenol] | + | GTX | + |  |  |  | PNMA6A (PNMA6A): + (key: +: above the reference value; −: below the reference value); At least ⅔ genes +? (HepG2 cell): GTX; Average result over three measurements (HepG2 cell): GTX; Prediction (class prediction results using the method of the invention) (HepG2 cell): GTX; SLC40A1 (SLC40A1): + (key: +: above the reference value; −: below the reference value); Ames (Salmonella typhimurium): −
11 | CC(=O)[C@H]1CC[C@H]2[C@@H]3CCC4=CC(=O)CC[C@]4(C)[C@H]3CC[C@]12C [Prog] | − | NGTX |  | − (below the reference value) |  | − (below the reference value) | 
12 | Cc1noc(NS(=O)(=O)c2ccc(N)cc2)c1C [Sulfi] | − | NGTX |  |  | − (below the reference value) | − (below the reference value) | 
13 | O=C1O[C@H]([C@@H](O)CO)C(O)=C1O [VitC] |  |  |  |  | + (above the reference value) | + (above the reference value) | In vivo GTX (rodents; positive when at least one in vivo assay (MN, CA) positive, equivocal considered positive): +; Standard (rodents; [3]): GTX; At least ⅔ genes +? (HepG2 cell): GTX; Average result over three measurements (HepG2 cell): GTX; Prediction (class prediction results using the method of the invention) (HepG2 cell): GTX
14 | CC1(C)S[C@@H]2[C@H](NC(=O)[C@H](N)c3ccccc3)C(=O)N2[C@H]1C(=O)O.O.O.O [ampC] |  |  |  | − (below the reference value) | − (below the reference value) |  | Standard (rodents; [3]): NGTX
15 | Cl[C@H]1[C@H](Cl)[C@@H](Cl)[C@@H](Cl)[C@H](Cl)[C@H]1Cl [γ-HCH] | − |  | − |  |  |  | Ames (Salmonella typhimurium): −
